Assay results published in patent publication US11773368B2, “Culture method for differentiating primordial germ cells into functionally mature oocytes” (TOKYO UNIVERSITY OF AGRICULTURE, priority 2015, dated 2023).
Entries after “also recorded” stand apart in the source; their conditions may differ.

Legend:
[1] = test system: secondary follicles from in vitro cultured gonads; test: In vitro growth culture of secondary follicle; type: cell-based, mouse
Procedure: The secondary follicles obtained by the in vitro organ culture of the gonads from the fetuses was processed for in vitro growth culture. […] In this example, the culture was performed with the medium supplemented with PVP which is the high-molecular-weight compound. Furthermore, the inventor found out that oocytes can develop to functional eggs by dissociating a part of the cell layers between a granulosa cell layer and a thecal cell layer which constitute a secondary follicle. Accordingly, in this example, the in vitro culture of the follicle includes a step of partial dissociation between the granulosa cell layer and the thecal cell layer. More concretely, the in vitro culture of the follicle was performed as follows.
After the culture of “1. In vitro organ culture of gonad” for 17 days mentioned above, the cultured gonads (ovaries) were transferred to L15 medium and the secondary follicles formed in the gonads were isolated from the gonads, using a fine Tungsten needle. The secondary follicles were further cultured in α-MEM supplemented with 2% (w/v) PVP, 5% FBS, and 0.1 IU/mL FSH (FOLLISTIM Injection 50; MSD). The secondary follicles were cultured on a Millicell membrane (0.4-μm pore size, 27-mm diameter; Merck Millipore) in a 35-mm culture dish (Falcon, Corning). On day 3 of the culture, the secondary follicles were transferred to 0.1% collagenase type I (Worthington Biochemicals) containing L15 medium and treated for 15 min at 37° C. Then, the theca cell layer of the secondary follicles was removed by pipetting with a pulled fine-glass capillary. Fifty to 60 secondary follicles were cultured on Transwell®-COL or Millicell membranes for another 9 to 13 days at 37° C. in the medium under 5% CO2 and 95% air. The inside and outside of the membrane insert were filled with 1 mL and 2 mL medium, respectively. Approximately half the medium in each well was replaced with fresh medium every other day.

[2] = test system: primordial germ cells in gonads from female mouse fetuses at 12.5 dpc; test: In vitro organ culture of gonad (secondary follicle formation); type: cell-based
Procedure: For the medium of the organ culture, the basal medium supplemented with FBS (Gibco, Thermo Fisher Scientific Inc.), SPS (SAGE In vitro Fertilization), the estrogen receptor antagonist, 7α, 17β-[9-([4,4,5,5,5-pentafluoropentyl]sulfinyl)nonyl]estra-1,3,5(10)-triene-3,17-diol; ICI 182,780 (ICI; Tocris Bioscience), 4-hydroxytamoxifen (Sigma-Aldrich), and MPP (Methylpiperidino pyrazole; Cayman Chemical) were added at the indicated concentrations for each experimental group below. The α-MEM medium (Gibco, Thermo Fisher Scientific Inc.) supplemented with 1.5 mM 2-O-α-d glucopyranosyl-1-ascorbic acid (Tokyo Chemical Industry), 10 units/mL penicillin, and 10 μg/mL streptomycin (Sigma-Aldrich) was used as a basal medium (referred to the basal medium hereafter as α-MEM).
ICI 182,780 and 4-hydroxytamoxifen was prepared as follows. ICI 182,780 and 4-hydroxytamoxifen was diluted to 100 mM using DMSO, and cryopreserved stock was prepared. MPP was diluted to 10 mM using DMSO, and cryopreserved stock was prepared. 1 mM solutions of ICI 182, 780 and 4-hydroxytamoxifen were prepared by diluting the 100 mM stocks 100-fold with DMSO just before use and were added to the medium at the indicated final concentrations for each experimental group. MPP was added to the medium at 1 μM as the final concentration just before use.
The gonads for the organ culture were collected with mesonephros or without mesonephros from female mouse fetuses at 12.5 dpc (FIG. 1a). 2.2 ml of the medium was added to each 6-well culture plate used for the organ culture. Transwell®-COL membrane (3.0-μm pore size, 24-mm diameter; Corning) was put on each well of the 6-well culture plate. The gonads were transferred on the membrane and were cultured for 17 days at 37° C. under 5% CO2 and 95% air. Approximately half of the medium in each well was replaced with fresh medium every other day. In the example in which the gonad was cultured with mesonephros, mesonephros was removed from the gonad at day 7 of the organ culture.
The in vitro organ culture of the gonads was performed according to the following conditions described below. The gonads were cultured for total 17 days in each conditions below (FIG. 2):
(i) culture for the complete 17 days period in 10% FBS containing α-MEM (α-MEM+FBS; FBS group);
(ii) culture for the complete 17 days period in 10% SPS containing α-MEM (α-MEM+SPS; SPS group);
(iii) culture for the complete 17 days period in 10% KSR containing α-MEM (α-MEM+KSR; KSR group);
(iv) culture in 10% FBS containing α-MEM for 4 days with a shift to 10% SPS containing α-MEM for 6 days from day 5 and a shift to 10% FBS containing α-MEM until day 17 from day 11 (αMEM+FBS/SPS; FBS/SPS group);
(v) culture in 10% FBS containing α-MEM for 4 days with a shift to 10% FBS containing α-MEM with the addition of 10 nM, 100 nM, 1 μM, 5 μM, or 10 μM (final concentration) ICI for 6 days from day 5 and a shift to 10% FBS containing α-MEM until day […] (αMEM+FBS/10 nM ICI; FBS/10 nM ICI group, αMEM+FBS/100 nM ICI; FBS/100 nM ICI group, αMEM+FBS/1 μM ICI; FBS/1 μM ICI group, αMEM+FBS/5 μM ICI; FBS/5 μM ICI group, or αMEM+FBS/10 μM ICI; FBS/10 μM ICI group);
(vi) culture in 10% FBS containing α-MEM for 4 days with a shift to 10% FBS containing α-MEM with the addition of 1 μM (final concentration) 4-hydroxytamoxifen for 6 days from day 5 and a shift to 10% FBS containing α-MEM until day 17 from day 11 (αMEM+FBS/1 μM Tamoxifen; FBS/1 μM Tamoxifen group);
(vii) culture in 10% FBS containing α-MEM for 4 days with a shift to 10% FBS containing α-MEM with the addition of 1 μM (final concentration) MPP for 6 days from day 5 and a shift to 10% FBS containing α-MEM until day 17 from day 11 (αMEM+FBS/1 μM MPP; FBS/1 μM MPP group).
Vitrification and warming were conducted as follows by reference to Wang, X. et al., “Successful in vitro culture of pre-antral follicles derived from vitrified murine ovarian tissue: oocyte maturation, fertilization, and live births.” Reproduction 141, 183-191 (2011). […]

[3] = FBS/1 μM ICI group (ICI day 5-11), 19 cultured gonads
[4] = FBS/5 μM ICI group (ICI day 5-11), 6 cultured gonads
[5] = FBS/10 μM ICI group (ICI day 5-11), 6 cultured gonads
[6] = Vitrification FBS/1 μM ICI (vitrified-warmed gonads), 4 cultured gonads

SMILES: C[C@]12CC[C@@H]3c4ccc(O)cc4C[C@@H](CCCCCCCCC[S+]([O-])CCCC(F)(F)C(F)(F)F)[C@H]3[C@@H]1CC[C@@H]2O (stereo partly drawn) [ICI, 7α, 17β-[9-([4,4,5,5,5-pentafluoropentyl]sulfinyl)nonyl]estra-1,3,5(10)-triene-3,17-diol]
- No. of collected COCs, proportion to the number of collected follicles ([1]; FBS/1 μM ICI group (ICI day 5-11)): 53.0%
- No. of collected COCs [1, 3]: 340
- No. of collected COCs, proportion to the number of collected follicles ([1]; FBS/5 μM ICI group (ICI day 5-11)): 57.1%
- No. of collected COCs [1, 4]: 178
- No. of collected COCs, proportion to the number of collected follicles ([1]; FBS/10 μM ICI group (ICI day 5-11)): 55.6%
- No. of collected COCs [1, 5]: 281
- average diameter of the oocytes obtained by the in vitro culture ([1]; FBS/10 μM ICI group, n=85): 80.0 μm
- No. of collected COCs, proportion to the number of collected follicles ([1]; Vitrification FBS/1 μM ICI (vitrified-warmed gonads)): 68.4%
- No. of collected COCs [1, 6]: 39
- follicle morphology of the ovary under an optical microscope ([2]; (v) FBS/ICI group, FIG. 3d (10 μM ICI)): abnormalities were significantly improved
- number of the collected secondary follicles ([2]; (v) ICI group, 10 nM, 100 nM, 1 μM, 5 μM or 10 μM ICI day 5-11, FIG. 4): increased depending on the ICI concentration; also recorded: significantly increased compared to FBS group
- No. of collected follicles [2, 3]: 641
- No. of collected follicles [2, 4]: 312
- No. of collected follicles [2, 5]: 505
- No. of collected follicles [2, 6]: 57
- follicles obtained from one ovary ([2]; vitrified and warmed gonads, FBS/1 μM ICI conditions): about 14
